Laboratory results reported in US20260218130A1, “METHOD FOR CULTURING ANIMAL CELLS” (Ajinomoto Co., Inc., priority 2023, published 2026).

Assays:
[1] = tested on: porcine subcutaneous preadipocytes (PSPA); assay: Proliferation of porcine subcutaneous preadipocytes (PSPA) in serum-free medium; assay type: cell-based; conditions: hinokitiol 0.25 or 0.5 μM + FeSO4•7H2O 1 μM, serum-free medium (transferrin-free); 4 days; FIG. 2
Protocol: As the porcine subcutaneous preadipocytes (PSPA), an adipose precursor cell line derived from porcine fetal subcutaneous tissue, described in Nakajima, et al. Biochem Biophys Res Commun. 2003 Sep. 26; 309(3): 702-8, was obtained from RIKEN RCB and used. The porcine subcutaneous preadipocytes (PSPA) from (2-1) were cultured using a serum medium. As the serum medium, a medium was used in which DMEM (Gibco, Cat No. 10313-021) was supplemented with 10% FBS (Thermo Fisher Scientific, Cat No. 10270106), 1% GlutaMAX™ Supplement (Thermo Fisher Scientific, Cat No. 35050061), and 1% Penicillin-Streptomycin (Nacalai Tesque, Cat No. 09367-34). As the serum-free medium, a medium based on the aforementioned E8 medium was used. PSPA were seeded into a 12-well plate at a density of 10,000 cells/cm^2, and the cells were subcultured into a serum medium, a transferrin-containing serum-free medium, or a hinokitiol- and iron-containing serum-free medium (transferrin-free), with medium exchange performed every other day. Cell counting was performed 4 days after the start of culturing, and the fold increase in cell number was calculated.

HEK293 cells = assay: Proliferation of HEK293 cells in suspension culture system; assay type: cell-based, human; conditions: hinokitiol 500 nM in Basal 10 or in-house medium, 20 days, FIG. 3
Protocol: As HEK293, Viral Production Cells 2.0 (Thermo Fisher Scientific: A49784), which is a clonal cell line derived from the HEK293 cell line, was used. The HEK293 cell line is widely known as a cell line derived from human embryonic kidney.
Using a 125 mL Erlenmeyer flask (VIOLAMO, SEF125V), Viral Production Cells 2.0, a clonal cell line derived from the HEK293 cell line, were seeded into 30 ml of Viral Production Medium (Thermo Fisher Scientific: A4817901) supplemented with GlutaMAX™ Supplement (Thermo Fisher Scientific, Cat No. 35050061) to a final concentration of 4 mM.
The cells were cultured with agitation in an incubator set at 37° C. and 8% CO2, and were subcultured twice. Thereafter, the cells were subcultured and cultured in a medium based on 30 mL of Basal 10 (Ajinomoto Healthy Supply, Co., Inc., CELLIST™ Basal media BASAL10) or an in-house medium supplemented with hinokitiol to a final concentration of 500 nM. The process of measuring the viable cell count every 3 or 4 days using a Vi-CELL BLU Cell Viability Analyzer (Beckman Coulter) before subculturing was repeated, and the cells were cultured for a total of 20 days.

bovine muscle stem cells = assay: Proliferation of bovine muscle stem cells in serum-free medium; assay type: cell-based; conditions: FIG. 1
From the text: Muscle tissue was collected from edible bovine shank meat, and CD56-positive cells were isolated using a Magnetic-Activated Cell Sorting (MACS) system to obtain bovine muscle stem cells. The bovine muscle stem cells obtained in (1-1) were suspended in a serum medium. As the serum medium, a medium was used in which Advanced DMEM (Thermo Fisher Scientific, Cat No. 12491015) was supplemented with 20% FBS (Thermo Fisher Scientific, Cat No. 10270106), 10% horse serum (Thermo Fisher Scientific, Cat No. 16050-130), and 1% GlutaMAX™ Supplement (Thermo Fisher Scientific, Cat No. 35050061). The cell suspension was seeded into a 12-well plate (BD FALCON, Cat #353046) coated with 1 μg/cm^2 fibronectin (Corning, Cat #F2006) at a cell density of 25,000 cells/0.2 mL, and the medium was changed every other day. On the fourth day of culture, the cells were subcultured into a hinokitiol-containing serum-free medium, a hinokitiol- and iron-containing serum-free medium, an iron-containing serum-free medium, a transferrin- and iron-containing serum-free medium, a transferrin-containing serum-free medium, or a serum-free medium not containing hinokitiol and transferrin, and the medium was changed every other day. […] Cell counting and subculturing were performed every 4 days, and the growth rate for two consecutive passages from day 4 to day 12 was calculated.

[2] = tested on: CD8-positive human T cells; assay: Proliferation of CD8-positive human T cells in serum-free medium; assay type: cell-based; conditions: hinokitiol 0.49 or 0.0049 μM, cell count after 7 days, FIG. 4
Protocol: CD3 Monoclonal Antibody (Thermo Fisher Scientific, Cat No. 16-0037-85) was mixed with PBS and added to a 24-well plate. After incubating at 37° C. for 1 hour, the plate was washed 3 times with PBS. As a base medium, CTS™ OpTmizer™ T Cell Expansion (Thermo Fisher Scientific, Cat No. A104851) supplemented with CTS™ Immune Cell SR (Thermo Fisher Scientific, Cat No. A2596101), 200 mM L-glutamine (Thermo Fisher Scientific, Cat No. 25030081), P/S/Amphotericin B (Fujifilm-Wako, Cat No. 161-23181), and IL2 (PeproTech, Cat No. 200-02) was used. In the coated 24-well plates, medium groups with hinokitiol added as shown in Table 3 were prepared, and CD8+ T cells (LONZA, Cat No. 2W-300) were cultured in each respective group. A cell count was performed after 7 days, and the proliferation rate was calculated.

CC(C)c1cccc(=O)c(O)c1 [hinokitiol]
cell proliferation (fold increase in cell number) [1]: cell proliferation-promoting effect
cell proliferation (viable cell count) (HEK293 cells): cell proliferation-promoting effect
cell proliferation-promoting effect on enhancing the iron concentration (bovine muscle stem cells; hinokitiol 0.03 or 0.30 μM + FeSO4•7H2O 1.0 or 10.1 μM, serum-free medium, in some cases): further improved
cell proliferation (fold increase, growth rate for two consecutive passages) (bovine muscle stem cells; hinokitiol 0.03 or 0.30 μM in E8-based serum-free medium, transferrin-free, day 4 to day 12): cell proliferation-promoting effect
cell proliferation (fold increase, proliferation rate) [2]: cell proliferation-promoting effect
